# Results reported in PubChem BioAssay AID624435 (The Scripps Research Institute Molecular Screening Center, 2012).
# Activity calls are given as the source filed them.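 How the source made its calls: active means inhibition of 30% or more at 100 µM, inferred from the inactive rule; inactive means inhibition below 30% at 100 µM.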
# Biological target: Serine/threonine-protein phosphatase 5 (Homo sapiens) (UniProt P53041)
# Assay: PP5c phosphohistone dephosphorylation blockade – biochemical, radiolabel, round 5, powder samples, orthogonal assay for PP5 inhibitor project, late-stage follow-up (AID 624435)
# Details: purified PP5c, 33P-phosphohistone dephosphorylation, scintillation; at 50 µM; stronger effect = higher value
# Sequence of Serine/threonine-protein phosphatase 5 (Homo sapiens) (P53041 whole entry, looked up): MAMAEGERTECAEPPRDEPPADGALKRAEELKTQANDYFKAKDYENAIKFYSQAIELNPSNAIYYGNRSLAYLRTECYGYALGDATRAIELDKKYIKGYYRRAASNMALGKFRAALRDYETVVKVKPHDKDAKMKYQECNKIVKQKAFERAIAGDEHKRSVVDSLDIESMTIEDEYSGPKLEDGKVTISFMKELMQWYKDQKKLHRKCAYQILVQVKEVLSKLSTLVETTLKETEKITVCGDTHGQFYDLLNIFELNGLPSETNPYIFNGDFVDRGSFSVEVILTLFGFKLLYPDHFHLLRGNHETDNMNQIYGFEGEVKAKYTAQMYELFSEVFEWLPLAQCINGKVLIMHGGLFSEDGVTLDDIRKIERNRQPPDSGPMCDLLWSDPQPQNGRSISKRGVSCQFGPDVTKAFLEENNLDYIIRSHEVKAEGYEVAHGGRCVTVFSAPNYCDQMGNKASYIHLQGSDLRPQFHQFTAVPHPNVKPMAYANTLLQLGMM
row,SMILES,inhibition
1,CC(C)c1ccccc1-c1n[nH]nc1C(=O)O,30.2%
2,CCc1ccccc1-c1n[nH]nc1C(=O)O,44.3%
3,O=C(O)c1nc(-n2cccc2)n[nH]1,-1.61% (inactive)
4,CC(C)Oc1ccccc1-c1n[nH]nc1C(=O)O,67.5%
5,Cc1n[nH]nc1C(=O)O,-4.84% (inactive)
6,Cc1cccc(-n2cnc(C(=O)O)c2)c1,2.84% (inactive)
7,O=C(O)c1ncn[nH]1,2.61% (inactive)
8,O=C(O)Cn1nnc2ccccc21,0.388% (inactive)
9,O=C(O)c1nn(Cc2ccccc2)nc1Cl,0.71% (inactive)
10,O=C(O)c1cn[nH]n1,-0.0127% (inactive)
11,O=C(O)c1n[nH]nc1-c1ccccn1,31.5%
12,Cc1cccc(-c2noc(C)c2C(=O)O)c1,-5.14% (inactive)
13,O=C(O)c1cn(Cc2ccccc2)nn1,-4.42% (inactive)
14,O=C(O)c1n[nH]nc1-c1cccnc1,2.2% (inactive)
15,O=C(O)CCn1nnc2ccccc21,0.241% (inactive)
16,O=C(O)c1nc2ncccn2n1,-1.84% (inactive)
17,O=C(O)c1cnn2ccccc12,-5.1% (inactive)
18,O=C(O)c1cc2ccccn2n1,-0.0487% (inactive)
19,Cc1onc(C(=O)O)c1Cn1cccn1,-2.66% (inactive)
20,O=C(O)c1cc2cccnc2[nH]1,-2.5% (inactive)

# Further lines, results first:
row,inhibition,SMILES
1,-4.55% (inactive),O=C(O)c1cc(-c2ccccc2)n[nH]1
2,-6.61% (inactive),O=C(O)c1cc(-c2ccccc2)ncn1
3,0.733% (inactive),O=C(O)c1nnn(-c2ccccc2)c1-c1ccccc1
4,-3.17% (inactive),O=C(O)c1cccn1-c1ccccc1
5,41.2%,O=C(O)c1n[nH]nc1-c1ccccc1-c1ccccc1
6,39%,Cc1ccccc1-c1n[nH]nc1C(=O)O
7,1.67% (inactive),COC(=O)c1n[nH]nc1-c1ccccc1
8,-0.78% (inactive),O=C(O)c1c(-c2ccccc2)nnc2ccccc12
9,-1.07% (inactive),O=C(O)c1n[nH]c2ccccc12
10,-2.04% (inactive),O=C(O)c1c[nH]cc1-c1ccccc1
11,-5.88% (inactive),O=C(O)c1ccccc1-c1ccccc1
12,-5.7% (inactive),O=C(O)c1cn[nH]c1-c1ccccc1
13,-7.51% (inactive),O=C(O)c1ccccc1-n1cccc1
14,-4.13% (inactive),Cc1scc(C(=O)O)c1-c1ccccc1
15,-0.948% (inactive),O=C(O)c1csc(Nc2ccccc2)n1
16,0.116% (inactive),O=C(O)c1ccccc1-c1nn[nH]n1
